Data: PubChem BioAssay AID330 (DTP/NCI, 2004)
“And” between values parts separate entries of the source, which are not always exact repeats. Identical values can stand only once. Inconclusive results and toxic doses are left out. How the source made its calls: active means survival T/C of 150% or more; inactive means T/C below 125% in these data.

System: P388 leukemia ip, CD2F1 mice, survival T/C
Assay: NCI In Vivo Anticancer Drug Screen. Data for tumor model P388 Leukemia (intraperitoneal) in CD2F1 (CDF1) mice
Conditions: endpoint: median survival time, higher = longer survival
In short: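 Mice carrying the transplanted tumor received test compound or vehicle. Survival was recorded in each group, and the value is the treated-group measurement divided by that of the vehicle-treated control group.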

[1] = dose: 6.25 mg/kg/injection, schedule: Q01DX005 (ip), vehicle: Klucel (hydroxypropylcellulose) (HPC)
[2] = dose: 12.5 mg/kg/injection, schedule: Q01DX005 (ip), vehicle: Klucel (hydroxypropylcellulose) (HPC)
[3] = dose: 25.0 mg/kg/injection, schedule: Q01DX005 (ip), vehicle: Klucel (hydroxypropylcellulose) (HPC)
[4] = dose: 100.0 mg/kg/injection, schedule: Q01DX001 (ip), vehicle: Klucel (hydroxypropylcellulose) (HPC)
[5] = dose: 200.0 mg/kg/injection, schedule: Q01DX001 (ip), vehicle: Klucel (hydroxypropylcellulose) (HPC)
[6] = dose: 50.0 mg/kg/injection, schedule: Q01DX009 (ip), vehicle: saline with Tween-80
[7] = dose: 100.0 mg/kg/injection, schedule: Q01DX009 (ip), vehicle: saline with Tween-80
[8] = dose: 200.0 mg/kg/injection, schedule: Q01DX009 (ip), vehicle: saline with Tween-80
[9] = dose: 50.0 mg/kg/injection, schedule: Q01DX005 (ip), vehicle: saline with Tween-80
[10] = dose: 100.0 mg/kg/injection, schedule: Q01DX005 (ip), vehicle: saline with Tween-80
[11] = dose: 200.0 mg/kg/injection, schedule: Q01DX005 (ip), vehicle: saline with Tween-80
[12] = dose: 25.0 mg/kg/injection, schedule: Q01DX009 (ip), vehicle: saline with Tween-80
[13] = dose: 60.0 mg/kg/injection, schedule: Q01DX005 (ip), vehicle: saline with Tween-80
[14] = dose: 120.0 mg/kg/injection, schedule: Q01DX005 (ip), vehicle: saline with Tween-80
[15] = dose: 240.0 mg/kg/injection, schedule: Q01DX005 (ip), vehicle: saline with Tween-80
[16] = dose: 50.0 mg/kg/injection, schedule: Q01DX005 (ip), vehicle: Klucel (hydroxypropylcellulose) (HPC)
[17] = dose: 100.0 mg/kg/injection, schedule: Q01DX005 (ip), vehicle: Klucel (hydroxypropylcellulose) (HPC)

Measured: T/C

O=C1OCCC(O)=C1C=Nc1ccccc1
inactive: [1] 108 % of control | [2] 112 % of control | [3] 117 % of control | [4] 100 % of control | [5] 97 % of control | dose: 400.0 mg/kg/injection, schedule: Q01DX001 (ip), vehicle: Klucel (hydroxypropylcellulose) (HPC) 99 % of control

CCOC(=O)C(C(=O)OCC)c1ccccn1
inactive: [6] 98 % of control | [7] 107 % of control | [8] 108 % of control

COC(=O)C1=CC(=O)N2CCN=C2S1
inactive: [9] 103 % of control | [10] 100 % of control | [11] 90 % of control

CCOCCOCCOC(C)OC(C)Cc1ccc2c(c1)OCO2 (stereo not given)
inactive: [9] 106 % of control | [10] 95 % of control | [11] 112 % of control

C=C(Cl)CSc1ncnc2nc[nH]c12
inactive: [6] 100 % of control | dose: 50.0 mg/kg/injection, schedule: Q04DX003 (ip), vehicle: saline with Tween-80 95 % of control | [7] 109 % of control | dose: 100.0 mg/kg/injection, schedule: Q04DX003 (ip), vehicle: saline with Tween-80 91 % of control | [8] 109 % of control | dose: 200.0 mg/kg/injection, schedule: Q04DX003 (ip), vehicle: saline with Tween-80 91 % of control

O=S(=O)(O)O.[Cu+2].[NH-]CCC[N-]CCCC[N-]CCC[NH-]
inactive: dose: 6.25 mg/kg/injection, schedule: Q01DX001 (ip), vehicle: saline 108 % of control | dose: 12.5 mg/kg/injection, schedule: Q01DX001 (ip), vehicle: saline 113 % of control and 92 % of control | dose: 25.0 mg/kg/injection, schedule: Q01DX001 (ip), vehicle: saline 113 % of control | dose: 50.0 mg/kg/injection, schedule: Q01DX001 (ip), vehicle: saline 106 % of control

CC(C)=CCc1c2ccoc2c(O)c2oc(=O)ccc12
inactive: [12] 106 % of control | [6] 105 % of control | [7] 105 % of control

C[C@]12CCNC(=O)C=C1CC[C@@H]1C2CC[C@@]2(C)C1CC[C@@H]2OC(=O)COc1ccc(N(CCCl)CCCl)cc1 (stereo not given in full)
active: dose: 100.0 mg/kg/injection, schedule: Q04DX002 (ip), vehicle: saline with Tween-80 159 % of control | dose: 200.0 mg/kg/injection, schedule: Q04DX002 (ip), vehicle: saline with Tween-80 199 % of control | dose: 400.0 mg/kg/injection, schedule: Q04DX002 (ip), vehicle: saline with Tween-80 225 % of control

CCOC(=O)c1ccc(N(C)Cc2cnc(N)c(C#N)n2)cc1
inactive: dose: 15.0 mg/kg/injection, schedule: Q01DX009 (ip), vehicle: saline with Tween-80 114 % of control | dose: 30.0 mg/kg/injection, schedule: Q01DX009 (ip), vehicle: saline with Tween-80 115 % of control | dose: 60.0 mg/kg/injection, schedule: Q01DX009 (ip), vehicle: saline with Tween-80 89 % of control

COc1ccc(/C=N/N2CN(C(C)C(=O)O)B(NC34CC5CC(CC(C5)C3)C4)N=C2N)cc1OC (stereo not given)
inactive: [13] 104 % of control | [14] 99 % of control | [15] 93 % of control

COc1cccc2c1C(=O)c1c(O)c3c(c(O)c1C2=O)CC(O)(c1csc(-c2ccccc2)n1)CC3O (stereo not given)
inactive: dose: 1.56 mg/kg/injection, schedule: Q01DX009 (ip), vehicle: water 106 % of control | dose: 3.13 mg/kg/injection, schedule: Q01DX009 (ip), vehicle: water 100 % of control | dose: 6.25 mg/kg/injection, schedule: Q01DX009 (ip), vehicle: water 109 % of control | dose: 12.5 mg/kg/injection, schedule: Q01DX009 (ip), vehicle: water 109 % of control | dose: 25.0 mg/kg/injection, schedule: Q01DX009 (ip), vehicle: water 103 % of control | dose: 50.0 mg/kg/injection, schedule: Q01DX009 (ip), vehicle: water 108 % of control

CC1(C(=O)O)C2[Se]c3[se]ccc3C2C1(C)C(=O)O (stereo not given)
inactive: [9] 104 % of control | [10] 96 % of control | [11] 102 % of control

CC(O)CNCCNc1ccc(NCCNCC(C)O)c2c1C(=O)c1c(O)ccc(O)c1C2=O (stereo not given)
active: dose: 0.5 mg/kg/injection, schedule: Q01DX009 (ip), vehicle: acid diluted with saline 165 % of control | dose: 1.0 mg/kg/injection, schedule: Q01DX009 (ip), vehicle: acid diluted with saline 150 % of control | dose: 2.0 mg/kg/injection, schedule: Q01DX009 (ip), vehicle: acid diluted with saline 200 % of control | dose: 4.0 mg/kg/injection, schedule: Q01DX009 (ip), vehicle: acid diluted with saline 234 % of control | dose: 8.0 mg/kg/injection, schedule: Q01DX009 (ip), vehicle: acid diluted with saline 202 % of control

C/C=C/c1ccc(OC(C)C(=O)c2ccc3c(c2)OCO3)c(OC)c1 (stereo not given)
inactive: dose: 10.0 mg/kg/injection, schedule: Q01DX005 (ip), vehicle: Klucel (hydroxypropylcellulose) (HPC) 108 % of control | dose: 20.0 mg/kg/injection, schedule: Q01DX005 (ip), vehicle: Klucel (hydroxypropylcellulose) (HPC) 101 % of control | dose: 40.0 mg/kg/injection, schedule: Q01DX005 (ip), vehicle: Klucel (hydroxypropylcellulose) (HPC) 101 % of control

C/C(=C\c1ccc([N+](=O)[O-])cc1)C(=O)N1CCCCC1
inactive: [16] 105 % of control | [17] 96 % of control | dose: 200.0 mg/kg/injection, schedule: Q01DX005 (ip), vehicle: Klucel (hydroxypropylcellulose) (HPC) 96 % of control

CCC(=O)c1cccc2c(C=O)c(Cl)n(C(=O)CC)c12
inactive: dose: 50.0 mg/kg/injection, schedule: Q01DX001 (ip), vehicle: Klucel (hydroxypropylcellulose) (HPC) 100 % of control | [4] 100 % of control | [5] 101 % of control

COc1ccc(C(Br)C(C)Br)cc1 (stereo not given)
inactive: [6] 104 % of control | [7] 90 % of control | [8] 95 % of control

NC1(C(=O)O)CCCc2ccc(N(CCCl)CCCl)cc21 (stereo not given)
active: dose: 5.0 mg/kg/injection, schedule: Q04DX003 (ip), vehicle: saline 165 % of control | dose: 6.25 mg/kg/injection, schedule: Q01DX009 (ip), vehicle: saline with Tween-80 218 % of control and 197 % of control and 201 % of control | dose: 10.0 mg/kg/injection, schedule: Q04DX003 (ip), vehicle: saline 180 % of control | dose: 12.5 mg/kg/injection, schedule: Q01DX009 (ip), vehicle: saline with Tween-80 272 % of control and 210 % of control and 215 % of control | dose: 12.5 mg/kg/injection, schedule: Q04DX003 (ip), vehicle: saline with Tween-80 222 % of control | dose: 25.0 mg/kg/injection, schedule: Q04DX003 (ip), vehicle: saline with Tween-80 272 % of control
inactive: [12] 90 % of control and 102 % of control and 121 % of control | dose: 313.0 micrograms/kg/injection, schedule: Q04DX003 (ip), vehicle: saline with Tween-80 100 % of control | dose: 625.0 micrograms/kg/injection, schedule: Q04DX003 (ip), vehicle: saline with Tween-80 109 % of control | dose: 1250.0 micrograms/kg/injection, schedule: Q04DX003 (ip), vehicle: saline with Tween-80 113 % of control

Cc1cc(N/N=C/c2cccc3ccccc23)c2cc3c(cc2n1)OCO3
inactive: [1] 95 % of control | [2] 100 % of control | [3] 112 % of control

COc1ccc(C(C)c2cc(OC)c(OC)cc2OC)cc1 (stereo not given)
inactive: [13] 102 % of control | [14] 102 % of control | [15] 105 % of control

O=C1Nc2ccc3[nH]ncc3c2C1=O
inactive: [9] 101 % of control | [10] 103 % of control | [11] 109 % of control

[Br][Sn]([CH2]CC[CH2][Sn]([Br])([c]1ccccc1)[c]1ccccc1)([c]1ccccc1)[c]1ccccc1
inactive: [16] 93 % of control | [17] 100 % of control

O=C(CC1(O)C(=O)Nc2ccccc21)c1cccc([N+](=O)[O-])c1 (stereo not given)
inactive: dose: 60.0 mg/kg/injection, schedule: Q01DX005 (ip), vehicle: Klucel (hydroxypropylcellulose) (HPC) 97 % of control | dose: 120.0 mg/kg/injection, schedule: Q01DX005 (ip), vehicle: Klucel (hydroxypropylcellulose) (HPC) 103 % of control | dose: 240.0 mg/kg/injection, schedule: Q01DX005 (ip), vehicle: Klucel (hydroxypropylcellulose) (HPC) 99 % of control

O=S1(=O)NC(=NC2CCCC2)c2ccccc21
inactive: [9] 111 % of control | [10] 102 % of control | [11] 101 % of control
